Among the data in patent US20240316059A1, “PEPTIDE DRUG CONJUGATES” (Oncopeptides AB, priority 2021, published 2024) are IC50 values, retold here.

The subject of one experiment is MM.1S cells. Briefly: In vitro cytotoxic potency in MM.1S cell viability assay (CellTiter-Glo). It counts as cell-based, human. The settings on record: 72 h, CellTiter-Glo 2.0; read-out: MM.1S IC50. As to the method:
Methods: MM.1S Cells were cultivated in RPMI medium 1640 (IX) supplemented with 10 μg/μL penicillin/streptomycin, 10% heat inactivated FBS, 0.1 mM Sodium Pyruvate, 1×MEM NEAA (ThermoFisher) and 1 mM HEPES. Cells were grown to reach log phase before being exposed to the test compounds.
Test compounds (Example compounds 1 to 36, 38 to 41 and 45 to 48) and comparative compounds (bendamustine, busulfan, melphalan, chlorambucil and 4-hydroperoxy cyclophosphamide) were dissolved in 100% DMSO and added to a 384 assay plate. Additional DMSO was added to maintain the same final DMSO concentration (0.2%) in all wells. 25 μL cell suspension with a concentration of 100000 cells/mL was added to each well. The cells were cultured in a CO2 incubator at 37° C. for 72 h. Plates were equilibrated to room temperature for 30 minutes before adding 20 μL CellTiter-Glo® 2.0 (Promega) reagent to all wells. The plate was then allowed to stabilize for 20 minutes before recording the luminescence (emission filter 700 nm) in an Envision plate reader.
All cells were cultivated in RPMI medium 1640 (IX). All media was supplemented with 10 μg/μl penicillin/streptomycin, 10% heat inactivated FBS, 0.1 mM Sodium Pyruvate, 1×MEM NEAA (ThermoFisher) and 1 mM HEPES. The DERL-2 cells had higher FBS (20%) and 40 ng/mL IL-2 was added. hPBMCs were thawed and allowed to acclimatise overnight and then stimulated with 10 μg/mL PHA-M and 40 ng/mL IL-2 for 4 hours before being exposed to test compounds. All cells, except for hPBMCs, were grown to reach log phase before being exposed to the test compounds.
Test compounds were dissolved in 100% DMSO and added to a 384 assay plate. Additional DMSO was added to maintain the same final DMSO concentration (0.2%) in all wells. 25 μL cell suspension with a concentration of 100000 cells/mL was added to each well. The cells were cultured in a CO2 incubator at 37° C. for 72 h. Plates were equilibrated to room temperature for 30 minutes before adding 20 μL CellTiter-Glo® 2.0 (Promega) reagent to all wells. The plate was then allowed to stabilize for 20 minutes before recording the luminescence (Em filter 700 nm) in an Envision plate reader.
For orientation: In ATP-based viability assays light output follows the ATP content of the culture.
`O=P1(N(CCCl)CCCl)NC(OO)CCO1` (stereo not shown) [4-hydroperoxy cyclophosphamide, reference compound]: the IC50 (usually the midpoint of a concentration-inhibition curve) amounted to 7.3 µM.

Staying with this experiment, now noted: Homo sapiens, MM1.S, 72 h, read-out: MM.1S IC50.
With `O=C(O)CCCc1ccc(N(CCCl)CCCl)cc1` [Chlorambucil, chlorambucil, reference compound], the IC50 amounted to 6.87 µM.

On to `CCOC(=O)[C@@H](NC(=O)[C@@H](N)CCc1nc2cc(N(CCCl)CCCl)ccc2n1C)C(C)C` [Example 3, Ethyl (2S)-2-[[(2S)-2-amino-4-[5-[bis(2-chloroethyl)amino]-1-methyl-benzimidazol-2-yl]butanoyl]amino]-3-methyl-butanoate], for which the IC50 came to 0.0068 µM.

Regarding `CCOC(=O)[C@H](CC(C)C)NC(=O)[C@@H](N)Cc1nc2cc(N(CCCl)CCCl)ccc2n1C` [Example 4, Ethyl (2S)-2-[[(2S)-2-amino-3-[5-[bis(2-chloroethyl)amino]-1-methyl-benzimidazol-2-yl]propanoyl]amino]-4-methyl-pentanoate], the IC50 was 0.0066 µM.

For `CCOC(=O)[C@H](Cc1ccc(F)cc1)NC(=O)[C@@H](N)Cc1nc2cc(N(CCCl)CCCl)ccc2n1C` [Example 5, Ethyl (2S)-2-[[(2S)-2-amino-3-[5-[bis(2-chloroethyl)amino]-1-methyl-benzimidazol-2-yl]propanoyl]amino]-3-(4-fluorophenyl)propanoate], the IC50 came to 0.0226 µM.

Turning to `CCOC(=O)[C@@H](NC(=O)[C@@H](N)Cc1nc2cc(N(CCCl)CCCl)ccc2n1C)C(C)C` [Example 6, Ethyl (2S)-2-[[(2S)-2-amino-3-[5-[bis(2-chloroethyl)amino]-1-methyl-benzimidazol-2-yl]propanoyl]amino]-3-methyl-butanoate], the IC50 is 0.0987 µM.

Take `CCOC(=O)[C@H](CCc1nc2cc(N(CCCl)CCCl)ccc2n1C)NC(=O)[C@@H](N)CC(C)C` [Example 7, Ethyl (2S)-2-[[(2S)-2-amino-4-methyl-pentanoyl]amino]-4-[5-[bis(2-chloroethyl)amino]-1-methyl-benzimidazol-2-yl]butanoate]: the IC50 stood at 0.0229 µM.

For the molecule `CCOC(=O)[C@H](CCc1nc2cc(N(CCCl)CCCl)ccc2n1C)NC(=O)[C@@H](N)Cc1ccc(F)cc1` [Example 8, Ethyl (2S)-2-[[(2S)-2-amino-3-(4-fluorophenyl)propanoyl]amino]-4-[5-[bis(2-chloroethyl)amino]-1-methyl-benzimidazol-2-yl]butanoate], the half-maximal inhibitory concentration (IC50) is 0.0144 µM.

With `CCOC(=O)[C@H](CCc1nc2cc(N(CCCl)CCCl)ccc2n1C)NC(=O)[C@@H](N)C(C)C` [Example 9, Ethyl (2S)-2-[[(2S)-2-amino-3-methyl-butanoyl]amino]-4-[5-[bis(2-chloroethyl)amino]-1-methyl-benzimidazol-2-yl]butanoate], the IC50 stood at 0.0225 µM.

In the case of `CCOC(=O)[C@H](Cc1nc2cc(N(CCCl)CCCl)ccc2n1C)NC(=O)[C@@H](N)Cc1ccc(F)cc1` [Example 11, Ethyl (2S)-2-[[(2S)-2-amino-3-(4-fluorophenyl)propanoyl]amino]-3-[5-[bis(2-chloroethyl)amino]-1-methyl-benzimidazol-2-yl]propanoate], the IC50 was 0.0147 µM.

Take `CCOC(=O)[C@H](Cc1nc2cc(N(CCCl)CCCl)ccc2n1C)NC(=O)[C@@H](N)C(C)C` [Example 12, Ethyl (2S)-2-[[(2S)-2-amino-3-methyl-butanoyl]amino]-3-[5-[bis(2-chloroethyl)amino]-1-methyl-benzimidazol-2-yl]propanoate]: the IC50 was 0.0125 µM.

For the molecule `COC(=O)[C@H](CC(C)C)NC(=O)[C@@H](N)Cc1nc2cc(N(CCCl)CCCl)ccc2n1C` [Example 14, Methyl (2S)-2-[[(2S)-2-amino-3-[5-[bis(2-chloroethyl)amino]-1-methyl-benzimidazol-2-yl]propanoyl]amino]-4-methyl-pentanoate], the IC50 was 0.0087 µM.

Take `CC(C)C[C@H](NC(=O)[C@@H](N)Cc1nc2cc(N(CCCl)CCCl)ccc2n1C)C(=O)OC(C)C` [Example 15, Isopropyl (2S)-2-[[(2S)-2-amino-3-[5-[bis(2-chloroethyl)amino]-1-methyl-benzimidazol-2-yl]propanoyl]amino]-4-methyl-pentanoate]: the half-inhibitory concentration (IC50) turned out to be 0.0091 µM.

`CCOC(=O)[C@H](CCc1nc2cc(N(CCCl)CCCl)ccc2n1C)NC(=O)[C@H](CC(C)C)NC(=O)[C@@H](N)Cc1ccc(F)cc1` [Example 16, Ethyl (2S)-2-[[(2S)-2-[[(2S)-2-amino-3-(4-fluorophenyl)propanoyl]amino]-4-methyl-pentanoyl]amino]-4-[5-[bis(2-chloroethyl)amino]-1-methyl-benzimidazol-2-yl]butanoate]: the IC50 worked out at 0.025 µM.

Regarding `Cn1c(C[C@H](N)C(=O)O)nc2cc(N(CCCl)CCCl)ccc21` [Example 17, (2S)-2-amino-3-[5-[bis(2-chloroethyl)amino]-1-methyl-benzimidazol-2-yl]propanoic acid], the IC50 amounted to 40 µM.

With `CC(C)[C@H](NC(=O)[C@@H](N)CCc1nc2cc(N(CCCl)CCCl)ccc2n1C)C(=O)O` [Example 19, (2S)-2-[[(2S)-2-amino-4-[5-[bis(2-chloroethyl)amino]-1-methyl-benzimidazol-2-yl]butanoyl]amino]-3-methyl-butanoic acid], the IC50 was 4.02 µM.

With `CCOC(=O)[C@H](CCc1nc2cc(N(CCCl)CCCl)ccc2n1C)NC(=O)[C@@H](CC(C)C)NC(=O)[C@@H](N)Cc1ccc(F)cc1` [Example 21, Ethyl (2S)-2-[[(2R)-2-[[(2S)-2-amino-3-(4-fluorophenyl)propanoyl]amino]-4-methyl-pentanoyl]amino]-4-[5-[bis(2-chloroethyl)amino]-1-methyl-benzimidazol-2-yl]butanoate], the IC50 amounted to 0.0266 µM.

In the case of `CCOC(=O)[C@H](Cc1ccc(F)cc1)NC(=O)[C@H](CC(C)C)NC(=O)[C@@H](N)CCc1nc2cc(N(CCCl)CCCl)ccc2n1C` [Example 22, Ethyl (2S)-2-[[(2S)-2-[[(2S)-2-amino-4-[5-[bis(2-chloroethyl)amino]-1-methyl-benzimidazol-2-yl]butanoyl]amino]-4-methyl-pentanoyl]amino]-3-(4-fluorophenyl)propanoate], the IC50 stood at 0.0313 µM.

As for `CCOC(=O)[C@H](CC(C)C)NC(=O)[C@H](CC(C)C)NC(=O)[C@@H](N)CCc1nc2cc(N(CCCl)CCCl)ccc2n1C` [Example 23, Ethyl (2S)-2-[[(2S)-2-[[(2S)-2-amino-4-[5-[bis(2-chloroethyl)amino]-1-methyl-benzimidazol-2-yl]butanoyl]amino]-4-methyl-pentanoyl]amino]-4-methyl-pentanoate], the IC50 was determined as 0.0418 µM.

Consider `CC(C)C[C@H](NC(=O)[C@@H](N)CCc1nc2cc(N(CCCl)CCCl)ccc2n1C)C(=O)OCCN1CCOCC1` [Example 24, 2-Morpholinoethyl (2S)-2-[[(2S)-2-amino-4-[5-[bis(2-chloroethyl)amino]-1-methyl-benzimidazol-2-yl]butanoyl]amino]-4-methyl-pentanoate], for which the IC50 stood at 0.156 µM.

For the molecule `CC(C)C[C@H](NC(=O)[C@@H](N)CCc1nc2cc(N(CCCl)CCCl)ccc2n1C)C(=O)OCCOC(C)C` [Example 25, 2-Isopropoxyethyl (2S)-2-[[(2S)-2-amino-4-[5-[bis(2-chloroethyl)amino]-1-methyl-benzimidazol-2-yl]butanoyl]amino]-4-methyl-pentanoate], the half-maximal inhibitory concentration (IC50) came out at 0.0185 µM.

`CC(C)C[C@H](NC(=O)[C@@H](N)CCc1nc2cc(N(CCCl)CCCl)ccc2n1C)C(=O)OC(C)C` [Example 26, Isopropyl (2S)-2-[[(2S)-2-amino-4-[5-[bis(2-chloroethyl)amino]-1-methyl-benzimidazol-2-yl]butanoyl]amino]-4-methyl-pentanoate]: the IC50 turned out to be 0.0068 µM.

Take `COC(=O)[C@H](CC(C)C)NC(=O)[C@@H](N)CCc1nc2cc(N(CCCl)CCCl)ccc2n1C` [Example 27, Methyl (2S)-2-[[(2S)-2-amino-4-[5-[bis(2-chloroethyl)amino]-1-methyl-benzimidazol-2-yl]butanoyl]amino]-4-methyl-pentanoate]: the IC50 stood at 0.0082 µM.

Consider `CC(C)C[C@H](NC(=O)[C@@H](N)CCc1nc2cc(N(CCCl)CCCl)ccc2n1C)C(=O)OCCCN(C)C` [Example 28, 3-(Dimethylamino)propyl (2S)-2-[[(2S)-2-amino-4-[5-[bis(2-chloroethyl)amino]-1-methyl-benzimidazol-2-yl]butanoyl]amino]-4-methyl-pentanoate], for which the IC50 was found to be 0.352 µM.

The experiment is the same for the next values; noted with them: Homo sapiens, MM1.S; 72 h, CellTiter-Glo 2.0; read-out: MM.1S IC50.
Regarding `CS(=O)(=O)OCCCCOS(C)(=O)=O` [Busulfan, busulfan, reference compound], the half-maximal inhibitory concentration (IC50) stood at 180 µM.
